Laboratory results reported in patent publication US20250032625A1, “HETEROBIFUNCTIONAL MOLECULES AS TEAD INHIBITORS” (Merck Patent GmbH, priority 2021, published 2025).
Where two headings read alike, the source gives them in different places.

Legend:
[1] = target: T1, hsTEAD1 (209-426) (Homo sapiens (Human), UniProt P28347); experiment: Thermal shift measurement / Differential Scanning Fluorimetry (DSF); type: binding; settings: 100 uM compound, 2 hours at 4° C., triplicates; read-out: ΔTm TEAD1 (209-426)
Protocol: (§1) Interaction of exemplary compounds with the various TEAD isoforms TEAD1, TEAD2, TEAD3, and TEAD4 was performed in a DSF assay. YAP-binding domains (YBD) of the four isoforms were subcloned and heterogeneously expressed in E. coli as a host. Initial purification was perfomed by using affinity tags, which got removed by overnight protease treatment. Further purification of TEAD isoforms was performed by Size-Exclusion Chromatography (SEC). Target protein containing fractions were pooled, concentrated with an Amicon (10 KDa MWCO) and quantified using the Bradford assay. Exemplary compound testing in the DSF assay for determining the shift of the TEAD isoform melting temperatures has been performed as described below: DSF was performed in MicroAmpTM EnduraPlateTM Optical 96-Well Clear Reaction Plates (Applied Biosystems, Life Technologies, California, USA) using a QuantStudio 7 Flex Real-Time PCR System (Applied Biosystems). Protein samples were briefly centrifuged before preparation. The final reaction mixture (20 μL of total volume) contained 11.8 μM of […]1 (209-426), 7.3 μM of […]2 (217-447), 7.9 μM of […]3 (216-435) or 11.7 μM of […]4 (217-424), and 2 or 4-fold of Protein Thermal ShiftTM Dye (Applied Biosystems) diluted in protein buffer-20 mM Tris pH 8.0, 150 mM NaCl (+0.5 mM TCEP for TEAD1 experiments). Prior to the addition of the dye, proteins were incubated with either 1 μL DMSO 100% (apo) or 100 uM of each exemplary compound (1 μL at 2 mM in 100% DMSO added to the […] reaction mixture) for 2 hours at 4° C. The melting curve data was recorded from 25 to 90° C. with an increment rate of 0.016° C.s^-1. Excitation and emission filters were applied for Protein Thermal ShiftTM Dye (470 nm and 520 nm, respectively) and for ROX reference dye (580 nm and 623 nm, respectively). The melting temperatures (Tm) were obtained by calculating the midpoint of each transition, using the Protein Thermal Shift SoftwareTM version 1.3. The thermal stability effect of each compound (ΔTm) was calculated by subtracting the calculated Tm in presence and absence (apo) of compound. All samples were tested in triplicates.

[2] = target: hsTEAD3 (216-435) (Homo sapiens (Human), UniProt Q99594); experiment: as above; type: binding; settings: 100 uM compound, 2 hours at 4° C., triplicates; read-out: ΔTm TEAD3 216-435
Protocol: as §1

[3] = target: hsTEAD2 (217-447) (Homo sapiens (Human), UniProt Q15562); experiment: as above; type: binding; settings: 100 uM compound, 2 hours at 4° C., triplicates; read-out: ΔTm TEAD2 (217-447)
Protocol: as §1

[4] = target: hsTEAD4 (217-424) (Homo sapiens (Human), UniProt Q15561); experiment: as above; type: binding; settings: 100 uM compound, 2 hours at 4° C., triplicates; read-out: ΔTm TEAD4 217-434
Protocol: as §1

[5] = target: T1, hsTEAD1 (209-426); experiment: Surface Plasmon Resonance (SPR) assay; type: binding; settings: Biacore 4000, 15° C., 1:1 Langmuir model, read-out: KD TEAD1 (209-426)
Protocol: The kinetic and affinity parameters of protein-exemplary compound interactions were evaluated by SPR. hsTEAD1 (209-426) was immobilized onto a CM7 (Series S) sensor chip via the standard amine coupling procedure, at 15° C. Prior to immobilization, the carboxymethylated surface of the chip was activated with 400 mM 1-ethyl-3-(3-dimethylaminopropyl)-carbodiimide and 100 mM N-hydroxysuccinimide for 10 min. hsTEAD1 (209-426) was diluted to 11 μg/mL in 10 mM Bis-Tris at pH 6.5 and immobilized on the activated surface chip for 8 and 10 min, in order to reach 6000 to 9000 response units (RU). The remaining activated carboxymethylated groups were blocked with a 7 min injection of 1 M ethanolamine pH 8.5 after which the surface chip was washed with 0.5% (w/v) sodium dodecyl sulphate and 50 mM glycine. HBS-N, which consists of 10 mM HEPES pH 7.4 and 150 mM NaCl, was used as the background buffer during immobilization. Exemplary compounds were prediluted in DMSO, diluted 1:50 in running buffer (20 mM Tris pH 7.4, 150 mM NaCl, 1 mM DTT, 5 mM MgCl2, 0.1 mM EGTA, 0.05% CHAPS) and injected at ten different concentrations using two-fold dilution series, from 100 μM to 0.2 μM. A DMSO solvent correction (1%-3%) was performed to account for variations in bulk signal and to achieve high-quality data. Interaction analysis cycles consisted of a 240 sec sample injection (30 μL/min; association phase) followed by 600 sec of buffer flow (dissociation phase).
All sensorgrams were processed by first subtracting the binding response recorded from the control surface (reference spot), followed by subtracting of the buffer blank injection from the reaction spot. All datasets were fit to a simple 1:1 Langmuir interaction model to determine the kinetic rate constants, KD. Experiments were performed on a Biacore 4000 (Cytiva, Uppsala, Sweden) at 15° C. and the interactions were evaluated using the provided Biacore 4000 evaluation software.

[6] = target: TEAD1 in NCI-H226 cells (Homo sapiens (Human), UniProt P28347); experiment: TEAD degradation in NCI-H226 cell line (immunofluorescence); type: cell-based
In short: (§2)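 SK-HEP1 and NCI-H226 cells were treated in duplicate for 16 or 24 h at 37 °C with compound (10 points, 1:3, top 30 µM final). After fixation, TEAD1 was immunostained with anti-TEF1 and per-cell fluorescence quantified by high-content imaging. DC50 from curve fitting.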

[7] = target: TEAD1 in SK-HEP1 cells (Homo sapiens (Human), UniProt P28347); experiment: TEAD degradation in SK-HEP1 cell line (immunofluorescence); type: cell-based
In short: as §2

[8] = 24 h incubation, read-out: DC50 NCI-H226 24 h
[9] = 24 hours, ranges, read-out: DC50 NCI-H226
[10] = 24 h incubation, read-out: DC50 SK-HEP1 24 h
[11] = 24 hours, ranges, read-out: DC50 SK-HEP1

Sequence of hsTEAD2 (217-447) (Q15562 217-447): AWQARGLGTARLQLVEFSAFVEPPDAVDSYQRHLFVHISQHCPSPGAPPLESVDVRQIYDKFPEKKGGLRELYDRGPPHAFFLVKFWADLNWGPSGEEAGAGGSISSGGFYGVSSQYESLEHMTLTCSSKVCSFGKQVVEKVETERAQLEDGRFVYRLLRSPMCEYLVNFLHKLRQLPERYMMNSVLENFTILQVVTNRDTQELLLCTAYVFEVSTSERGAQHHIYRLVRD
Sequence of hsTEAD3 (216-435) (Q99594 216-435): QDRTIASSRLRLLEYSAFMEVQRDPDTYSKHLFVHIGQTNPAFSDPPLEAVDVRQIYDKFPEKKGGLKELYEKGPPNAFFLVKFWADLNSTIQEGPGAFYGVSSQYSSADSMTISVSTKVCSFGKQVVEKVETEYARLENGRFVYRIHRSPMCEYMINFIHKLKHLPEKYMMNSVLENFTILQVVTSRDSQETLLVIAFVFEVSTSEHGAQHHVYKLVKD
Sequence of hsTEAD4 (217-424) (Q15561 217-434): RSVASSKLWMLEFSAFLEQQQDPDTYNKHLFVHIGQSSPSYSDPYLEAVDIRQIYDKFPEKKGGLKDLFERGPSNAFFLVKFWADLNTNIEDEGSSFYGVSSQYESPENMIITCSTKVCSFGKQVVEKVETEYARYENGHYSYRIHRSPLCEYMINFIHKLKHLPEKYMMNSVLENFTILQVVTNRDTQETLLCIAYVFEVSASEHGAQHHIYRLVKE
Sequence of TEAD1 in SK-HEP1 cells (P28347 whole entry): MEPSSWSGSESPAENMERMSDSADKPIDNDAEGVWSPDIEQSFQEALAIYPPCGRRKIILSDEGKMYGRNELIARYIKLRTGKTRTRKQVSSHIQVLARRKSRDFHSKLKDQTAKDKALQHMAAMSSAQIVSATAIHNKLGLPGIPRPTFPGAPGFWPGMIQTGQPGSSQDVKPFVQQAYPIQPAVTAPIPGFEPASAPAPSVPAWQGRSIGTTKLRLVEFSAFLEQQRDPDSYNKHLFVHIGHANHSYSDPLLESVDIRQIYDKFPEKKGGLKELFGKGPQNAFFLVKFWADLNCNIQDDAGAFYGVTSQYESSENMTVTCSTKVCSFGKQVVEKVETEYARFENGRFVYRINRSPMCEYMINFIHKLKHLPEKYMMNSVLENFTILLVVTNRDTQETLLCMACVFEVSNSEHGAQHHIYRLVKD
Sequence of TEAD1 in NCI-H226 cells (P28347 whole entry): as above
T1 sequence (P28347 209-426): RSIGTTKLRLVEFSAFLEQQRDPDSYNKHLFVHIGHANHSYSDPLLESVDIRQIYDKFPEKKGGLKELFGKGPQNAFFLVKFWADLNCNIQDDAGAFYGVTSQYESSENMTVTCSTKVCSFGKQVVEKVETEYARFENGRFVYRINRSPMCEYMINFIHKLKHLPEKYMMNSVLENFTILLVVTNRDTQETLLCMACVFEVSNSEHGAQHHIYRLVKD

ΔTm at 100 µM [1] [°C]	ΔTm at 100 µM [2] [°C]	ΔTm at 100 µM [3] [°C]	ΔTm at 100 µM [4] [°C]	Kd [5] [µM]	DC50 [6, 8] [µM]	DC50 [6, 9] [µM]	DC50 [7, 10] [µM]	DC50 ([6]; 16 h incubation, read-out: DC50 NCI-H226 16 h) [µM]	DC50 [7, 11] [µM]	SMILES
4.1	1.3	0.7	0	1.52						Cn1cc2c3cc(C(=O)NCCOCCOCCNC(=O)COCCOCCOCC(=O)Nc4cccc5c4C(=O)N(C4CCC(=O)NC4=O)C5=O)ccc3n(-c3ccc(C(F)(F)F)cc3)c2n1 (centres unmarked) [Compound 2, 2-{2-[2-({[2-(2,6-dioxopiperidin-3-yl)-1,3-dioxo-2,3-dihydro-1H-isoindol-4-yl]carbamoyl}methoxy)ethoxy]ethoxy}-N-(2-{2-[2-({2-methyl-8-[4-(trifluoromethyl)phenyl]-2H,8H-pyrazolo[3,4-b]indol-5-yl}formamido)ethoxy]ethoxy}ethyl)acetamide]
				0.98						CN1C(=O)CCC(N2C(=O)c3cccc(NC(=O)COCCOCCOCCOCCNC(=O)c4ccc5c(c4)c4cn(C)nc4n5-c4ccc(C(F)(F)F)cc4)c3C2=O)C1=O (centres unmarked) [Compound 36, N-[2-(1-methyl-2,6-dioxopiperidin-3-yl)-1,3-dioxo-2,3-dihydro-1H-isoindol-4-yl]-14-({2-methyl-8-[4-(trifluoromethyl)phenyl]-2H,8H-pyrazolo[3,4-b]indol-5-yl}formamido)-3,6,9,12-tetraoxatetradecanamide]
3.9	0.9	-0.1	2.8	1.9	20	9 to 30	30			Cn1cc2c3cc(C(=O)NCCOCCOCCNC(=O)COc4cccc5c4C(=O)N(C4CCC(=O)NC4=O)C5=O)ccc3n(-c3ccc(C(F)(F)F)cc3)c2n1 (centres unmarked) [Compound 5, 2-{[2-(2,6-dioxopiperidin-3-yl)-1,3-dioxo-2,3-dihydro-1H-isoindol-4-yl]oxy}-N-(2-{2-[2-({2-methyl-8-[4-(trifluoromethyl)phenyl]-2H,8H-pyrazolo[3,4-b]indol-5-yl}formamido)ethoxy]ethoxy}ethyl)acetamide]
				0.482						Cn1cc2c3cc(C(=O)NCCOCCOCCNC(=O)CCCNc4cccc5c4CN(C4CCC(=O)NC4=O)C5=O)ccc3n(-c3ccc(C(F)(F)F)cc3)c2n1 (centres unmarked) [Compound 14, 4-{[2-(2,6-dioxopiperidin-3-yl)-1-oxo-2,3-dihydro-1H-isoindol-4-yl]amino}-N-(2-{2-[2-({2-methyl-8-[4-(trifluoromethyl)phenyl]-2H,8H-pyrazolo[3,4-b]indol-5-yl}formamido)ethoxy]ethoxy}ethyl) butanamide]
-1.1			1.4	1.4		0.1 to 1				Cn1cc2c3cc(C(=O)NCCOCCOCCNC(=O)CCCCCCNc4cccc5c4C(=O)N(C4CCC(=O)NC4=O)C5=O)ccc3n(-c3ccc(C(F)(F)F)cc3)c2n1 (centres unmarked) [Compound 6, 7-{[2-(2,6-dioxopiperidin-3-yl)-1,3-dioxo-2,3-dihydro-1H-isoindol-4-yl]amino}-N-(2-{2-[2-({2-methyl-8-[4-(trifluoromethyl)phenyl]-2H,8H-pyrazolo[3,4-b]indol-5-yl}formamido)ethoxy]ethoxy}ethyl) heptanamide]
3.4			0.7	0.32	10			3		Cc1ncsc1-c1ccc(CNC(=O)[C@@H]2C[C@@H](O)CN2C(=O)[C@@H](NC(=O)COCCOCCOCCOCC(=O)NCCOCCOCCNC(=O)c2ccc3c(c2)c2cn(C)nc2n3-c2ccc(C(F)(F)F)cc2)C(C)(C)C)cc1 [Compound 3, N-[(2S)-1-[(2S,4R)-4-hydroxy-2-({[4-(4-methyl-1,3-thiazol-5-yl)phenyl]methyl}carbamoyl)pyrrolidin-1-yl]-3,3-dimethyl-1-oxobutan-2-yl]-N′-(2-{2-[2-({2-methyl-8-[4-(trifluoromethyl)phenyl]-2H,8H-pyrazolo[3,4-b]indol-5-yl}formamido)ethoxy]ethoxy}ethyl)-3,6,9,12-tetraoxatetradecanediamide]
4.7	0	0		1.87						Cn1cc2c3cc(C(=O)NCCOCCOCCNC(=O)COCCOCCOCCOCCOCC(=O)Nc4cccc5c4C(=O)N(C4CCC(=O)NC4=O)C5=O)ccc3n(-c3ccc(C(F)(F)F)cc3)c2n1 (centres unmarked) [Compound 1, N′-[2-(2,6-dioxopiperidin-3-yl)-1,3-dioxo-2,3-dihydro-1H-isoindol-4-yl]-N-(2-{2-[2-({2-methyl-8-[4-(trifluoromethyl)phenyl]-2H,8H-pyrazolo[3,4-b]indol-5-yl}formamido)ethoxy]ethoxy}ethyl)-3,6,9,12,15-pentaoxaheptadecanediamide]
				0.97	30		2.4		1 to 3	Cn1cc2c3cc(C(=O)NCCOCCOCCNC(=O)CCCCNc4cccc5c4CN(C4CCC(=O)NC4=O)C5=O)ccc3n(-c3ccc(C(F)(F)F)cc3)c2n1 (centres unmarked) [Compound 9, 5-{[2-(2,6-dioxopiperidin-3-yl)-1-oxo-2,3-dihydro-1H-isoindol-4-yl]amino}-N-(2-{2-[2-({2-methyl-8-[4-(trifluoromethyl)phenyl]-2H,8H-pyrazolo[3,4-b]indol-5-yl}formamido)ethoxy]ethoxy}ethyl) pentanamide]
4.5	1.3	0.3	-0.2			0.1 to 1			0.1 to 1	Cc1ncsc1-c1ccc(CNC(=O)[C@H]2C[C@H](O)CN2C(=O)[C@H](NC(=O)COCCOCCOCCOCCOCCNC(=O)c2ccc3c(c2)c2cn(C)nc2n3-c2ccc(C(F)(F)F)cc2)C(C)(C)C)cc1 [Compound 11, (2R,4S)-1-[(2R)-3,3-dimethyl-2-[17-({2-methyl-8-[4-(trifluoromethyl)phenyl]-2H,8H-pyrazolo[3,4-b]indol-5-yl}formamido)-3,6,9,12,15-pentaoxaheptadecanamido]butanoyl]-4-hydroxy-N-{[4-(4-methyl-1,3-thiazol-5-yl)phenyl]methyl}pyrrolidine-2-carboxamide]
